Data published in US20220331322A1, “COMPOUND FOR INHIBITING CELL DEATH” (Christian-Albrechts-Universität zu Kiel, priority 2019, published 2022).

What was measured:
L929 cells [1] = assay: Stimulation assay: TNF-α + 5Z-7 (± zVAD) induced RIPK1-dependent apoptosis/necroptosis; format: cell-based, murine; details: primidone 1 mM, Nec-1s 20 μM
Protocol: Murine fibroblasts (L929 cells) were stimulated for 24 h at 37° C. in the presence of (a) vehicle, (b) 10 ng/ml tumor necrosis factor alpha (TNF-α), (c) 1 μM 5Z-7-oxozeaenol (5Z-7), (d) a combination of 10 ng/ml TNF-α and 1 μM 5Z-7, (e) a combination of 10 ng/ml TNF-α, 1 μM 5Z-7, and 20 μM necrostatin-1 (Nec-1s), (f) a combination of 10 ng/ml TNF-α, 1 μM 5Z-7, and 1 mM primidone (primidone is referred to in the Figures as compound A), (g) a combination of 10 ng/ml TNF-α, 1 μM 5Z-7, and 25 μM zVAD, (h) a combination of 10 ng/ml TNF-α, 1 μM 5Z-7, and 20 μM Nec-1s, and (i) a combination of 10 ng/ml TNF-α, 1 μM 5Z-7, 25 μM zVAD, and 1 mM primidone. TNF-α is a pro-inflammatory cytokine which triggers cell survival (canonical pathway) or cell death, depending on the cellular context. 5Z-7-oxozeaenol (5Z-7) is an inhibitor of transforming growth factor activated kinase 1 (TAK1). TAK1 is an intermediate in the signaling pathway of the TNF-receptor type 1 (TNFR1), and it is known that TAK1 is essential for the prevention of TNF-induced cell death. Cells in which TAK1 is disrupted or otherwise blocked are hypersensitive to TNF-α-induced cell death due to diminished prosurvival pathways including NF-κB and reduced antioxidant enzymes which results in activation of caspases. The compound zVAD is a pan-caspase inhibitor.

L929 cells [2] = assay: TLR3-mediated cell death induced by poly (I:C) + zVAD; format: cell-based, murine; details: L929, 1 μg/ml poly (I:C) + 25 μM zVAD, 24 h; primidone 1 mM, Nec-1s 20 μM
Excerpt: Cell death was induced by activation of the Toll-like receptor 3 (TLR3). TLR3 is mainly expressed on immune cells, where it senses pathogen-associated molecular patterns and initiates innate immune response. The TLR3 agonist poly (I:C) was developed to mimic pathogens infection and boost immune system activation. In experimental models, poly (I:C) is known to induce regulated cell death in cells expressing TLR3. To examine whether primidone also blocks TLR3-mediated cell death, murine L929 cells were stimulated for 24 h at 37° C. with vehicle (a), 1 μg/ml of the TLR3 ligand poly (I:C) alone (b) or in combination with 25 μM zVAD (c). In addition, cells were stimulated with 1 μg/ml poly (I:C), 25 μM zVAD and 20 μM Nec-1s (d) and with 1 μg/ml poly (I:C), 25 μM zVAD and 1 mM primidone (e).

RIPK1 [3] = assay: RIPK1 phosphorylation (Ser166) western blot after TSZ; format: cell-based, human; details: U937, TSZ, 1 mM primidone
Protocol: It was tested whether primidone interferes with binding of TNF-α to its corresponding receptor TNFR1. To induce cell death, human U937 cells were treated in the absence (vehicle) or presence of 1 mM primidone with 100 ng/ml Fc-tagged TNF-α+1 μM SMAC mimetic SM164+25 μM zVAD (TSZ) for different time periods, followed by immunopurification of the immunoprecipitated TNF-α-induced complex I using μMACS™ protein A/G microbeads, and western blot analysis using a specific RIPK1 antibody.
It was then analyzed if the previously immunoprecipitated RIPK1 is activated by phosphorylation. For this purpose, the Western Blot shown before (FIG. 5) was “stripped” by chemically removing all reagents from the blot and re-developed with an antibody that only detects RIPK1 in its activate (i.e. phosphorylated) form.

L929 cells [4] = assay: Time profile of blocking TZ-induced necroptosis, FACS (7-AAD/Annexin V); format: cell-based, murine; details: L929, 10 ng/ml TNF-α + 25 μM zVAD (TZ), 24 h; primidone 1 mM, Nec-1s 25 μM; one representative experiment of three
Protocol: The time profile of primidone for blocking cell death was compared to the one of Nec-1s. For this purpose, murine L929 cells were stimulated at 37° C. for 24 h with 10 ng/ml TNF-α+25 μM zVAD (TZ) in the presence of 1 mM primidone and 25 μM Nec-1s, respectively, for the indicated durations. Nec-1s and primidone were added 30 min before, 60 min and 180 min after the induction of RIPK1-mediated necroptosis, respectively. Cell death was quantified by FACS analysis using 7-amino-actinomycin D and phosphatidylserine accessibility (Annexin V staining) as markers.

RIPK1 [5] = biological target: T1, RIPK1 (Homo sapiens, UniProt Q13546); assay: KINOMEscan profiling kinase assay
T1 sequence (Q13546 1-671): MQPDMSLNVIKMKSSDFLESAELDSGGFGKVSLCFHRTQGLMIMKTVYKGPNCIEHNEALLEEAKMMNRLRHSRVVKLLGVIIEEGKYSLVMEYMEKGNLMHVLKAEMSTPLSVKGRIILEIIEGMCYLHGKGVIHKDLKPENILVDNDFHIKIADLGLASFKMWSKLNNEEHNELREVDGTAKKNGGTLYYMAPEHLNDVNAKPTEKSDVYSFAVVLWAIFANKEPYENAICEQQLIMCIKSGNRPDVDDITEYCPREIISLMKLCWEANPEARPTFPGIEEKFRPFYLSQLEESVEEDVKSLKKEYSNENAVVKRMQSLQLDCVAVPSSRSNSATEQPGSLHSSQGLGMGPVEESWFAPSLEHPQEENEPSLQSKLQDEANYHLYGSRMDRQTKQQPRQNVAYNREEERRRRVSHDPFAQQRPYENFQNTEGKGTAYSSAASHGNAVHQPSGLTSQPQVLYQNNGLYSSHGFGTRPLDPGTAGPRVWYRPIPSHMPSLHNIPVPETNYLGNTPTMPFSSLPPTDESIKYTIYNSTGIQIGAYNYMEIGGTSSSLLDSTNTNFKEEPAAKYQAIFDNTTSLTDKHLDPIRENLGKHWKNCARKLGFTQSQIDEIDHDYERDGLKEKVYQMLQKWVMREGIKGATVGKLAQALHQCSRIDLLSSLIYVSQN
Protocol: To clarify, a KINOMEscan™ profiling kinase assay was performed. […] Dissociation constants (Kd) for test compound-kinase interactions are calculated by measuring the amount of kinase captured on the solid support as a function of the test compound concentration.

How did the “Block of RIPK1-dependent necroptosis” value (L929 cells [1]; L929, 10 ng/ml TNF-α + 1 μM 5Z-7 + 25 μM zVAD, 24 h) turn out when `CCC1(c2ccccc2)C(=O)NCNC1=O` [primidone, 5-Ethyl-5-phenyl-1,3-diazinane-4,6-dione] was run?
The value was “able to block”.

What about the “Block of RIPK1-dependent apoptosis (RDA)” value (L929 cells [1]; L929, 10 ng/ml TNF-α + 1 μM 5Z-7, 24 h, zVAD 25 μM) of the same molecule?
The value was “could also be blocked”.

And the “Protection from RIPK1-mediated cell death induced by poly (I:C) and zVAD” value (L929 cells [2])?
Its value is “effectively protect cells”.

What about the “Activation (phosphorylation) of RIPK1 at residue Ser166” value (RIPK1 [3]) of the same molecule?
The value was “completely blocked”.

What about the “Cells still alive, compound added 60 min after induction of cell death” value (L929 cells [4]) of the same molecule?
Its value is 92.7%.

And the “Cells still alive, compound added 3 hours after induction of cell death” value (L929 cells [4])?
Its value is 58.6%.

And the “Binding to RIPK1 kinase domain (prevention of kinase binding to immobilized ligand)” value (RIPK1 [5])?
Its value is “does not inhibit RIPK1 by binding directly to its kinase domain”.
